Assay results: patent US20210361578A1, “MEK1/2 INHIBITOR-LOADED MICROPARTICLE FORMULATION” (University of Iowa Research Foundation, priority 2020, published 2021)
“Also recorded” adds a separate entry of the source.

How the values were obtained:
[1] = Pharmacokinetics and organ levels of PD98059 following IV injection in healthy rats; type: in vivo
Procedure: 1: Pharmacokinetics of PD98059. Rats were anaesthetized using urethane and a canula was inserted in the femoral vein. A solution of PD98059 dissolved in 10% Tween 80 in sterile 1× DPBS at a concentration of 0.5 mg/ml (total volume 2 ml) was administered slowly by intravenous infusion. After 5, 15, 30, 60, 180, and 360 minutes, blood samples were withdrawn from rats. Major organs (liver, kidney, brain, and heart) were collected from rats after 1 and 3 hours (n=3/time point).
All blood samples were collected into 4 ml BD Vacutainer® blood collection tubes (K2-EDTA, Becton, Dickinson, and Company, Franklin Lakes, N.J.). Plasma samples were collected by centrifugation (3,300×g, 15 min), and frozen at −80° C. until analyzed. Plasma samples were thawed on ice, and a volume of 100 μl of plasma was transferred to a 15 ml tube, and spiked with 15 μl of the internal standard (IS) solution (10 μg/ml of 7-hydroxyfiavone in methanol). Collected organs were rinsed in PBS, then frozen at −80° C. For organs, a portion of each organ (200-400 mg) was accurately weighed and homogenized (Fisher Brand Bead Mill 4 Homogenizer, Hampton, N.H.) in 250 μl of 1× DPBS using 20-25 2.5 mm ceramic beads per sample, and spiked with 15 μl of the internal standard (IS) solution. One ml of cold acetonitrile was added to 100 μl of plasma samples or 400 μl of the tissue homogenate and vortexed for 1 min. The samples were kept on ice for 15 min to precipitate the proteins, then the tubes were centrifuged (4° C., 3,300×g, 10 min) and the supernatant was collected, and evaporated under nitrogen stream.
In the case of protocols 1 and 2, the residue in each tube was then dissolved in the mobile phase (described in the HPLC section below), centrifuged (12,000×g, 5 min), and the supernatant was injected in the HPLC and analyzed by the method described below. A standard curve was prepared using plasma and tissues collected from naive rats. These plasma or tissue homogenate samples were spiked with 15 μl of the IS solution as mentioned above, in addition to 15 μl of standard solutions of PD98059 in methanol at different concentrations. Pharmacokinetic parameters were calculated using PK Solver.
An Agilent HPLC workstation was used for sample analysis (Agilent Infinity 1100, Santa Clara, Calif.) that consisted of an Agilent quaternary pump, automatic injection port, and Agilent diode array detector (Agilent Corporation, Santa Clara, Calif.). A RP-C18 column was used for analysis (Waters Symmetry, 5 μm pore size, 4.6 mm×150 mm, Milford, Mass.). The mobile phase consisted of methanol: water 70:30 with 0.1% v/v trifluoroacetic acid, and the flow rate was 1 ml/min at room temperature. The detection wavelength was set to 275 nm.

MEK = conditions: Dudley et al.; cited from earlier work
[2] = test system: plasma levels of norepinephrine; PVN p-ERK1/2; conditions: HF rats, cited from earlier work
[3] = In vitro drug release of PD98059-loaded microparticles (Examples 1/3, centrifugation and medium replacement); type: physicochemical; conditions: PD98059 powder; DPBS with 0.4% w/v Tween 80, 37° C.
Procedure: A weighed amount of the microparticles was suspended in 5 ml of the release medium (Dulbecco's phosphate buffered saline, DPBS, Life Science, Waltham, Mass.) that contains 0.4% w/v Tween 80 at an amount equivalent to 0.065 mg microparticles in 50 ml tube (n=3). The tubes were placed in an orbital shaker (New Brunswick Scientific, Edison, N.J.) operating at 300 rpm and 37° C. At pre-determined time points, the tube was centrifuged (1000×g for 5 min) and the whole volume of the release medium (5 ml) was removed and replaced completely with fresh medium in which the pellet was re-suspended. The concentration of PD98059 was measured in the samples using the HPLC method described below. The standard curve range was 0.125-10 μg/ml, and the r^2 value was 0.9998.
An Agilent Infinity 1100 HPLC (Santa Clara, Calif.) was used for to analyze PD98059 content and release of the microparticles. […] The flow rate used was 1 ml/min at room temperature, and the wavelength at which PD98059 was detected at 275 nm.
A weighed amount of the microparticles was suspended in 5 ml of the release medium (Dulbecco's phosphate buffered saline, DPBS, Life Science, Waltham, Mass.) that contains 0.4% w/v Tween 80 at an amount equivalent to 0.065 mg microparticles in 50 ml tube (n=3). […] The concentration of PD98059 was measured in the samples using the HPLC method described below. […]

[4] = test system: PVN neuronal excitation and sympathetic nerve activity; conditions: cited from earlier work

## COc1cccc(-c2cc(=O)c3ccccc3o2)c1N [PD98059]
[1]; IV injection of 1 mg of PD98059 in solution, non-compartmental analysis
  AUC0-t: 2378.7 ng·h/mL
[1]; healthy rats, IV 1 mg
  brain PD98059 level at 1 hour: approximately 410 ng/g
  brain PD98059 level at 3 hours: ~76 ng/g
[1]; healthy rats, IV 1 mg, 1 and 3 hours
  drug levels in major organs (liver, kidney, brain, heart): drug levels in the liver and kidney were comparatively higher than those in the brain and heart
[1]; rats
  crossing of the blood brain barrier: a significant portion of the drug crossed the blood brain barrier; also recorded: found to cross the blood brain barrier
  elimination half-life: above 1 hour
[1]; rats, IV injection of PD98059 solution, 1 mg
  elimination half-life in plasma: 1.22 h
[1]; rats, IV, PK Solver
  pharmacokinetic model that fits the data: 2-compartment model
MEK
  in vitro activity of MEK once PD98059 was removed from the medium: fully and instantaneously restored
[2]; ICV infusion for 4 weeks
  plasma norepinephrine levels: significant reduction; also recorded: reduced; also recorded: normalized
[2]; long term ICV infusion
  PVN p-ERK1/2: successfully decreased
[3]
  time for 80% of the unencapsulated drug to dissolve in the release medium: 24 h
[4]; HF rats, 1-h ICV infusion, compared to SHAM or untreated animals
  heart rate: significantly decreased
[4]; heart failure rats, 1-hour ICV infusion
  PVN neuronal excitation and (renal) sympathetic nerve activity: decreased; also recorded: inhibited
